The text below walks through data of EP0891773A1, “Use of gamma-linolenic acid for preventing oxydative stress” (priority 1997, dated 1999).

The assay concerns fibroblastes dermiques humains normaux. In words: Protective effect on normal human dermal fibroblasts under oxidative stress (TBH 10^-4 M, 1 h); cell viability by neutral red uptake. Type of assay: cell-based. The settings on record: for activity at 0.1 µM: 0,1 µM. As to the method: Mesure de l'effet protecteur de l'acide γ-linolénique sur des fibroblastes dermiques humains normaux soumis à un stress oxydatif:
Des cultures de fibroblastes dermiques humains normaux sont réalisées selon la méthode décrite par Gilchrest B. A. dans J. Gerontol., vol.35, pp. 537-541, 1980.
A J(0) on ensemence des plaques multipuits de type COSTAR à raison de 50000 cellules par puits. Les cellules sont cultivées dans du milieu MEM Eagle (GIBCO) contenant 10% de sérum de veau foetal, 2 mM de L-glutamine, 1% acides aminés non essentiels, 1 mM pyruvate de sodium et 1% d'un mélange antibiotiques/antimicotiques vendu par la société GIBCO.
A J(+1) le milieu de culture est remplacé par du milieu MEM sans sérum de veau foetal contenant ou ne contenant pas (témoin) la substance à tester.
Des solutions d'acides gras essentiels sont préparés dans des solutions à 0.1 % d'albumine humaine. Les solutions mères sont à 2. 10^-3 M , la dilution minimale est à 10^-4 M dans le milieu de culture sans sérum de veau foetal. L'addition de vitamine E à 30 µM final permet d'éviter les problèmes d'autooxydation des acides gras. Les cellules sont traitées 3 jours sans changement de milieu.
Un stress oxydatif est induit à J(+4). Pour cela, le milieu de culture est retiré et les plaques sont rincées avec du tampon phosphate salin (PBS). 50% des puits sont traités par une solution de terbutyl hydroperoxyde (TBH) à 10^-4 M, les 2 autres puits étant laissés en PBS et l'incubation se poursuit pendant une heure dans un incubateur à 37°C en atmosphère contenant 5% de CO2.
Au bout d'une heure, les plaques sont rincées 3 fois au PBS pour enlever toute trace de TBH. Une solution mère de rouge neutre à […] est diluée au 1/40 dans un milieu minimum (MEM de marque GIBCO). La solution diluée est placée 1h au bain marie à 37°C pour une bonne dissolution puis filtrée sur 0.22 µm pour éliminer les cristaux résiduels. La solution ainsi préparée est ajoutée sur les cellules et les plaques sont mises à l'incubateur à 37°C en atmosphère contenant 5% de CO2 pour 3 h. Après incubation les plaques sont vidées de leur milieu et rincées au PBS. Une solution à 0.4% de formaldéhyde et 1% de chlorure de calcium dans de l'eau est ajoutée dans chaque puits pour une durée de 1 minute. On remplace alors cette solution par une solution à 49% d'éthanol pur dans l'eau et 1% d'acide acétique glacial. On laisse la coloration se développer 30 mn à température ambiante et on lit les plaques au spectrophotomètre à 540 nm.
Pour chaque condition (traité ou témoin), le calcul est effectué de la manière suivante :
Proportion de cellules stressées : rapport de la moyenne des densités optiques mesurées pour les puits traités sur la moyenne des densités optiques mesurées pour les puits non traités.
Pourcentage de résistance : Proportion de cellules stressées dans l'essai sur proportion de cellules stressées dans le témoin x 100
Par ce calcul, le témoin est considéré à 100 % de protection contre le stress oxydatif et les produits présentent un effet protecteur supérieur ou inférieur au témoin.

[1] abbreviates: Fibroblast, table a, comparison of essential fatty acids, 10 µM, 3 days pretreatment, then TBH 10^-4 M 1 h, control = 100, read-out: Pourcentage de résistance.
Setting [2] is: Fibroblast, table c, comparison with known antioxidants, 10 µM, control = 100, read-out: Pourcentage de résistance.
[3] abbreviates: Fibroblast, table c, comparison with known antioxidants, 100 µM, control = 100, read-out: Pourcentage de résistance.
[4] abbreviates: Fibroblast, table c, comparison with known antioxidants, 1 mM, control = 100, read-out: Pourcentage de résistance.

Where two headings read alike, the source gives them in different places.

`CCCCC/C=C\C/C=C\CCCCCCCC(=O)O` [Acide Linoléique]: the activity at 10 µM under setting [1] worked out at 100%.

As for `CCCCC/C=C\C/C=C\C/C=C\CCCCC(=O)O` [Acide γ-Linolénique, acide γ-linolénique], the activity at 0.01 µM (Fibroblast, table b, dose effect, 0,01 µM, control = 100, read-out: Pourcentage de résistance) was found to be 123%. In addition, the activity at 0.1 µM (Fibroblast, table b, dose effect, control = 100, read-out: Pourcentage de résistance) came to 130% and the activity at 0.1 µM (Fibroblast, table c, comparison with known antioxidants, control = 100, read-out: Pourcentage de résistance) was 112%. The activity at 1 µM (Fibroblast, table b, dose effect, 1 µM, control = 100, read-out: Pourcentage de résistance) was 119%. Also, the activity at 10 µM turned out to be 121% (Fibroblast, table b, dose effect, 10 µM, control = 100, read-out: Pourcentage de résistance) and 124% under setting [1]. Further, the activity at 100 µM (Fibroblast, table b, dose effect, 100 µM, control = 100, read-out: Pourcentage de résistance) was determined as 95%. Where the note is “concentration of maximum effect in the dose-effect test (table b)”, the effet maximum was 0,1 µM. The “résistance au stress oxydatif” value (conclusion in words on table a (10 µM), only this fatty acid among those tested) was “augmente la résistance au stress oxydatif”. Also, the “effet protecteur du stress oxydatif” value (conclusion in words on table c, versus reference antioxidants) is reported as “comparable à celui de molécules reconnues comme anti-oxydants de référence”.

Consider `N[C@@H](CCC(=O)N[C@@H](CS)C(=O)NCC(=O)O)C(=O)O` [Glutathion], for which, under setting [2], the activity at 10 µM was found to be 95%. Also, the activity at 100 µM under setting [3] came out at 93%. Besides, under setting [4], the activity at 1000 µM came to 100%.

On to `CC(=O)N[C@@H](CS)C(=O)O` [N-Acétyl cystéine], for which, under setting [2], the activity at 10 µM was 94%. The activity at 100 µM under setting [3] came out at 103%. In addition, under setting [4], the activity at 1000 µM worked out at 107%.

As for `S=C(S)N1CCCC1` [Pyrrolidine dithiocarbamate], the activity at 20 µM (Fibroblast, table c, comparison with known antioxidants, 20 µM, control = 100, read-out: Pourcentage de résistance) was found to be 97%. The activity at 100 µM under setting [3] is 112%.

Consider Vitamine E, for which the “Pourcentage de résistance” value came out at 112% (table c, comparison with known antioxidants, 10 µM, control = 100); 107% (table c, comparison with known antioxidants, 100 µM, control = 100); 111% (table c, comparison with known antioxidants, 1 mM, control = 100).
